The values below come from patent US6602510B1, “HLA class I A2 tumor associated antigen peptides and vaccine compositions” (priority 2000, dated 2003).

The test system of one data set is PBMC from normal donors. Type of data set: cell-based, human.
Data set [1] concerns patients with recurrent or residual cervical carcinoma. The settings on record: cited from earlier work.

In the case of QYIKANSKFIGITE [Epitope 553.01], in the data set on PBMC from normal donors, the “antigen concentration at which the 10,000 cpm proliferation level was reached” value is given as “about 10,000 ng/ml”. Consider aKXVAAWTLKAAa-NH2, for which, in data set [1] (95% interval 10-65%), the responding patients was 33%. In data set [1] (co-emulsified with HPV-derived CTL epitopes), the safety entry was “favorable safety profile”.
